Reference: BindingDB's records for doi:10.1111/cbdd.12570 (University of Milano, 2015)
pIC50: −log10 of the molar value. Structures can show the parent of a compound that is named as a salt.

Biological target: Putative heat shock protein HSP 90-alpha A4 (Homo sapiens, UniProt Q58FG1)
Test: Fluorescence Polarization (FP) Assay
Procedure: The fluorescence polarization (FP) assay was performed as described in the reference (Bioorg Med Chem. 2010. 18:6031-6043).

Sequence of Putative heat shock protein HSP 90-alpha A4 (Q58FG1 whole entry): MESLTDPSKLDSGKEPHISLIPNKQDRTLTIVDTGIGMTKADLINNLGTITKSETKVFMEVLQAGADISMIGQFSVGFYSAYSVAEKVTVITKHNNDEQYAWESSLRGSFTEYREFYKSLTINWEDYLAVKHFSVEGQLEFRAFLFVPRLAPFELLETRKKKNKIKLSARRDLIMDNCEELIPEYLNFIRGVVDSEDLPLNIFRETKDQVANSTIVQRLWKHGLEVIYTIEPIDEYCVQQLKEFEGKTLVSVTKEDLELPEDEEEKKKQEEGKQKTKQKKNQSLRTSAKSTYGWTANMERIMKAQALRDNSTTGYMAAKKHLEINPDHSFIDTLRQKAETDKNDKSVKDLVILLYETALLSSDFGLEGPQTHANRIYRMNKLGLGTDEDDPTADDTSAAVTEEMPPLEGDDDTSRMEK

Compound | pIC50
C=CCNC1=C2C[C@@H](C)C[C@H](OC)C[C@@H](C)/C=C/[C@H](OC(N)=O)[C@@H](OC)/C=C\C=C(/C)C(=O)NC(=CC1=O)C2=O [17-AAG] | 5.96
O=C1NCCc2c(-c3cc(Cl)c(O)cc3O)noc21 [3-(5-chloro-2,4-dihydroxyphenyl)-5,6-dihydroisoxazolo[5,4-c]pyridin-7(4H)-one (9b)] | 5.80
Oc1cc(O)c(-c2noc3c2CCCC3O)cc1Cl (configuration not stated) [3-(5-chloro-2,4-dihydroxyphenyl)-4,5,6,7-tetrahydro-benzo[d]isoxazol-7-ol (14)] | 4.59
NCCON=C1CCCc2c(-c3cc(Cl)c(O)cc3O)noc21 [3-(5-chloro-2,4-dihydroxyphenyl)-5,6-dihydro-4H-benzo[d]isoxazol-7-one O-(2-aminoethyl)-oxime hydrochloride (16)] | 5.20
NCCON=C1CCCc2c(-c3ccc(C(N)=O)cc3)noc21 [4-(7-(2-Aminoethoxyimino)-4,5,6,7-tetrahydrobenzo[d]isoxazol-3-yl)-benzamide hydrochloride (21c)] | < 4.00
NC(=O)c1ccc(-c2noc3c2CCCC3=NO)cc1 [4-(7-Hydroxyimino-4,5,6,7-tetrahydro-benzo[d]isoxazol-3-yl)benzamide (21a)] | < 4.00
NC(=O)c1ccc(-c2noc3c2CCCC3=O)cc1 [4-(7-Oxo-4,5,6,7-tetrahydrobenzo[d]isoxazol-3-yl)-benzamide (20)] | < 4.00
NC(=O)c1ccc(-c2noc3c2CCCC3=NOCCN2CCOCC2)cc1 [4-(7-(2-Morpholin-4-yl-ethoxyimino)-4,5,6,7-tetrahydrobenzo[d]isoxazol-3-yl)benzamide (21b)] | < 4.00
CN1CCc2c(-c3cc(Cl)c(O)cc3O)noc2C1=O [3-(5-chloro-2,4-dihydroxyphenyl)-5,6-dihydro-6-methylisoxazolo[5,4-c]pyridin-7(4H)-one (9a)] | 5.00
ON=C1CCCc2c(-c3cc(Cl)c(O)cc3O)noc21 [3-(5-chloro-2,4-dihydroxyphenyl)-5,6-dihydro-4H-benzo[d]isoxazol-7-one oxime (15)] | 6.10
O=C1CCCc2c(-c3cc(Cl)c(O)cc3O)noc21 [3-(5-chloro-2,4-dihydroxyphenyl)-5,6-dihydrobenzo[d]isoxazol-7(4H)-one (13)] | 5.32
NC(=O)c1ccc(-c2noc3c2CCCC3O)cc1 (configuration not stated) [4-(7-Hydroxy-4,5,6,7-tetrahydro-benzo[d]isoxazol-3-yl)benzamide (22)] | < 4.00
